# Assay results as given in patent US20100056524A1, “Compound” (priority 2008, published 2010).
# Columns and labels:
# Assay type in all cases: biochemical
# [1] = target: T1, HIPK2 (Homo sapiens, UniProt Q9H2X6); test: HIPK2 protein kinase assay
# T1 construct: All protein kinases were of human origin and encoded full length proteins, unless indicated otherwise; made in house
# Text: (§1) All protein kinases were of human origin and encoded full length proteins, unless indicated otherwise. They were either expressed as glutathione S-transferase (GST) fusion proteins in Escherichia Coli or as hexahistidine (His6)-tagged proteins in insect Sf21 cells. GST fusion proteins were purified by affinity chromatography on glutathione-Sepharose, and His6-tagged proteins on nickel/nitriloacetate-agarose. The procedures for expressing some of the protein kinases used herein have been detailed previously.^8,9 The following sections outline the DNA vectors synthesised and the procedures used to express and purifying protein kinases that have not been reported previously.
# (§2) All assays (25.5 μl) were carried out at room temperature (21° C.) and were linear with respect to time and enzyme concentration under the conditions used. Assays were performed for 30 min using Multidrop Micro reagent dispensers (Thermo Electron Corporation, Waltham, Mass. 02454, USA) in a 96-well format. The concentration of magnesium acetate in the assays was 10 mM and the [γ-33P] ATP (800 cpm/pmol) was used at 5, 20 or 50 μM as indicated, in order to be at or below the Km for ATP for each enzyme. Protein kinases assayed at 5 μM ATP were: —ERK1, ERK8, PKBα, MARK3, Aurora C. Protein kinases assayed at 20 μM ATP were: —JNK1, PDK1, CHK1, CHK2, CDK2 and Aurora B. Protein kinases assayed at 50 μM ATP were: —MNK2, IKKepsilon and TBK1.
# (§3) The assays were initiated with MgATP, stopped by addition of 5 μl of 0.5 M orthophosphoric acid and spotted on to P81 filterplates using a unifilter harvester (PerkinElmer, Boston, Mass. 02118, USA). The IC50 values of inhibitors were determined after carrying out assays at 10 different concentrations of each compound.
# (§4) Unless stated otherwise, enzymes were diluted in 50 mM Tris/HCl pH 7.5, 0.1 mM EGTA, 1 mg/ml BSA, 0.1% (v/v) 2-mercaptoethanol and assayed in 50 mM Tris/HCl pH 7.5, 0.1 mM EGTA, 0.1% (v/v) 2-mercaptoethanol.
# [2] = target: T2, Lck (Homo sapiens, UniProt P06239); test: Lck protein kinase assay
# T2 construct: All protein kinases were of human origin and encoded full length proteins, unless indicated otherwise; made in house
# T2 sequence (P06239 whole entry): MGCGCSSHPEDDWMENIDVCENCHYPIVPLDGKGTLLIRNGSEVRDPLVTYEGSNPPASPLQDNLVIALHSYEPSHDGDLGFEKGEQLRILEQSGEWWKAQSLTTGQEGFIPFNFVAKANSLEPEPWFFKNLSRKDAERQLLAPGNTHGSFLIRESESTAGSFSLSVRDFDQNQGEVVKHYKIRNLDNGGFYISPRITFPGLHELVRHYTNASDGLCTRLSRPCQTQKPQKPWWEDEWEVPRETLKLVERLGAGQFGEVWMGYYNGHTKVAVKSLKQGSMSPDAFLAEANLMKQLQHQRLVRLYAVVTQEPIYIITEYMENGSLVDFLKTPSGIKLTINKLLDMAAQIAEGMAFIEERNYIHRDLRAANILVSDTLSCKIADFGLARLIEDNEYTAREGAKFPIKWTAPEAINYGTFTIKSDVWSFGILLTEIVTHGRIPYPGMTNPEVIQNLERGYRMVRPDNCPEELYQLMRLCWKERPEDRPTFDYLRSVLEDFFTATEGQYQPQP
# Text: as §1, §2, §3, §4
# [3] = target: T3, PRK2 (Homo sapiens, UniProt Q16513); test: PRK2 protein kinase assay
# T3 construct: All protein kinases were of human origin and encoded full length proteins, unless indicated otherwise; made in house
# T3 sequence (Q16513 501-984 limits assumed): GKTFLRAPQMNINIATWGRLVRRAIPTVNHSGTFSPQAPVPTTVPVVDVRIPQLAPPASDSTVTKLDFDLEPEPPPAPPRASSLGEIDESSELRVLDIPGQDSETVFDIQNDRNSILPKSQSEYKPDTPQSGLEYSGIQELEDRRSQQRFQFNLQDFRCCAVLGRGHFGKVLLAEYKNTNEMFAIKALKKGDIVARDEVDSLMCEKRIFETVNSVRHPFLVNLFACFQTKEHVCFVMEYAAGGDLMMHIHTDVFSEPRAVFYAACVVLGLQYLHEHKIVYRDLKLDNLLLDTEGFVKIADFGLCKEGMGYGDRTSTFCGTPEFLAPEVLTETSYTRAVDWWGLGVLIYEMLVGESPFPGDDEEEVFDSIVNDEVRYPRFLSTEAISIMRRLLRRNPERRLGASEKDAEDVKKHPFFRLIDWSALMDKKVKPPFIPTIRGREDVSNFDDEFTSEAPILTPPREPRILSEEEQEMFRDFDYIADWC
# Text: as §1, §2, §3, §4
# [4] = target: T4, PIM3 (Homo sapiens, UniProt Q86V86); test: PIM3 protein kinase assay
# T4 construct: All protein kinases were of human origin and encoded full length proteins, unless indicated otherwise; made in house
# Text: as §1, §2, §3, §4
# [5] = target: T5, SYK (Homo sapiens, UniProt P43405); test: SYK protein kinase assay
# T5 construct: All protein kinases were of human origin and encoded full length proteins, unless indicated otherwise; made in house
# Text: as §1, §2, §3, §4
# [6] = target: T6, CSK (Homo sapiens, UniProt P41240); test: CSK protein kinase assay
# T6 construct: All protein kinases were of human origin and encoded full length proteins, unless indicated otherwise; made in house
# T6 sequence (P41240 whole entry): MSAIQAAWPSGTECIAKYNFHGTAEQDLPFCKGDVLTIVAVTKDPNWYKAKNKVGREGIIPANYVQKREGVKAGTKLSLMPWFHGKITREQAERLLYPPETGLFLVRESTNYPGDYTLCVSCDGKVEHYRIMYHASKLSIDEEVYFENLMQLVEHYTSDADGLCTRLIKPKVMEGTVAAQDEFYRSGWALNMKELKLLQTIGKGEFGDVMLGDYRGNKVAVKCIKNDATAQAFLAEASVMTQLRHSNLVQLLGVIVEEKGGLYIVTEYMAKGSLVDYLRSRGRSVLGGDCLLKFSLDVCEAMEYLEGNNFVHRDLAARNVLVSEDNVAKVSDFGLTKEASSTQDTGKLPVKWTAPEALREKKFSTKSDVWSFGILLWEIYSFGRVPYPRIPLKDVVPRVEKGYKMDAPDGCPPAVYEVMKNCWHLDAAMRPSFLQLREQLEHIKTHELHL
# Text: as §1, §2, §3, §4
# [7] = target: T7, VEG-FR (Homo sapiens, UniProt P17948); test: VEG-FR protein kinase assay
# T7 construct: All protein kinases were of human origin and encoded full length proteins, unless indicated otherwise; made in house
# T7 sequence (P17948 784-1338 limits assumed): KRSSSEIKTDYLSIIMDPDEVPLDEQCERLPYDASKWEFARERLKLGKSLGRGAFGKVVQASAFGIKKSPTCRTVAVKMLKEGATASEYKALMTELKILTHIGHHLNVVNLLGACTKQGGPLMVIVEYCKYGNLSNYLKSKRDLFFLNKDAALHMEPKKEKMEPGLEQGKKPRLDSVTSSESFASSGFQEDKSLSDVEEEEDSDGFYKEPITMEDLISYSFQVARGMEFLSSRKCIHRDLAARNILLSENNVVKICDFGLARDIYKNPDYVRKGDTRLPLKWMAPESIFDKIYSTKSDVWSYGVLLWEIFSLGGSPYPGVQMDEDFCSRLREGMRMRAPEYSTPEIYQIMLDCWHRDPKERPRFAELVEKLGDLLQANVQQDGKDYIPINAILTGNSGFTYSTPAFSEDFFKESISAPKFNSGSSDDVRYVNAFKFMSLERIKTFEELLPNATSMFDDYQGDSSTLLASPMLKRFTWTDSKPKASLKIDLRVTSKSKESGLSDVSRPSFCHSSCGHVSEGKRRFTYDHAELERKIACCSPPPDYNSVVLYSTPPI
# Text: as §1, §2, §3, §4
# [8] = target: T8, CAMKKb (Homo sapiens, UniProt Q96RR4); test: CAMKKb protein kinase assay
# T8 construct: All protein kinases were of human origin and encoded full length proteins, unless indicated otherwise; made in house
# T8 sequence (Q96RR4 whole entry): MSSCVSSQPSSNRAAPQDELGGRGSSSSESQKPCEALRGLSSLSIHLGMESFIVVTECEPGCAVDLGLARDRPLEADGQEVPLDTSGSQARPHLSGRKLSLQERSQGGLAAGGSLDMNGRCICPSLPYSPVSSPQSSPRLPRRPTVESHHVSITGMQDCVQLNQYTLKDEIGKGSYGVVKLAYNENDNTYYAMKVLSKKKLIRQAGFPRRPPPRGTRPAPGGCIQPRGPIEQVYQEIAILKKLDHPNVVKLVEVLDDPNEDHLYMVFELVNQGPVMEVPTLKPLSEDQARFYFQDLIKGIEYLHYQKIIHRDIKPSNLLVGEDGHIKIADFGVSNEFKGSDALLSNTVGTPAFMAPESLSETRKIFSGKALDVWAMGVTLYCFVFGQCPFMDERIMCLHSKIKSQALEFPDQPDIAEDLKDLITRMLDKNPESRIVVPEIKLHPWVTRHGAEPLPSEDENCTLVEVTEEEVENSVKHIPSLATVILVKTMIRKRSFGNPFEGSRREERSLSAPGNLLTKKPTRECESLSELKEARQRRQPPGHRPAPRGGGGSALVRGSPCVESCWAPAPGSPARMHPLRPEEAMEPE
# Text: as §1, §2, §3, §4
# [9] = target: T9, PLK1 (Homo sapiens, UniProt P53350); test: PLK1 protein kinase assay
# T9 construct: All protein kinases were of human origin and encoded full length proteins, unless indicated otherwise; made in house
# Text: as §1, §2, §3, §4
# [10] = target: T10, MKK1 (Homo sapiens, UniProt Q02750); test: MKK1 protein kinase assay
# T10 construct: All protein kinases were of human origin and encoded full length proteins, unless indicated otherwise; made in house
# T10 sequence (Q02750 whole entry): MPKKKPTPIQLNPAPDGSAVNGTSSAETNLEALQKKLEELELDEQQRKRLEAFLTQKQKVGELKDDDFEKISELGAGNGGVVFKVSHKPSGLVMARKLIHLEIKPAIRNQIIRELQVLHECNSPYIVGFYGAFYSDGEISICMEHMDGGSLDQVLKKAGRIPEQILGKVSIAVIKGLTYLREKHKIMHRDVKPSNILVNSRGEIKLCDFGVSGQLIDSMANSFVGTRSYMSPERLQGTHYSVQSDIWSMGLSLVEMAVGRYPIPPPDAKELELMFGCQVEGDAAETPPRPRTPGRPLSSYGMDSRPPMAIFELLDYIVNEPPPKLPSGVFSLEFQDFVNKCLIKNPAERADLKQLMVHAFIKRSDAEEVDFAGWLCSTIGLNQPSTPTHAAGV
# Text: as §1, §2, §3, §4
# [11] = target: T11, MAPKAP-K2 (Homo sapiens, UniProt P49137); test: MAPKAP-K2 protein kinase assay
# T11 construct: All protein kinases were of human origin and encoded full length proteins, unless indicated otherwise; made in house
# T11 sequence (P49137 46-400 limits assumed): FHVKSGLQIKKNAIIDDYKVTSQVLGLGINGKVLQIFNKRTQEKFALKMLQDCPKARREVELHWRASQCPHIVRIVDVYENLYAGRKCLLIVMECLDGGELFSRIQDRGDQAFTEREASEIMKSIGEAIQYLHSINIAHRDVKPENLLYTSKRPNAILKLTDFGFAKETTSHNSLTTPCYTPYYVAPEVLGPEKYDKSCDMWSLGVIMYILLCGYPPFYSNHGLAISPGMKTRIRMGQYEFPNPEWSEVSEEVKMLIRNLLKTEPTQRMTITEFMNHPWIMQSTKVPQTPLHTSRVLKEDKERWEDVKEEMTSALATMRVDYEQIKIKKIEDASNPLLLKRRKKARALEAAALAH
# Text: as §1, §2, §3, §4
# [12] = target: T12, FGF-R1 (Homo sapiens, UniProt P11362); test: FGF-R1 protein kinase assay
# T12 construct: All protein kinases were of human origin and encoded full length proteins, unless indicated otherwise; made in house
# T12 sequence (P11362 400-820 limits assumed): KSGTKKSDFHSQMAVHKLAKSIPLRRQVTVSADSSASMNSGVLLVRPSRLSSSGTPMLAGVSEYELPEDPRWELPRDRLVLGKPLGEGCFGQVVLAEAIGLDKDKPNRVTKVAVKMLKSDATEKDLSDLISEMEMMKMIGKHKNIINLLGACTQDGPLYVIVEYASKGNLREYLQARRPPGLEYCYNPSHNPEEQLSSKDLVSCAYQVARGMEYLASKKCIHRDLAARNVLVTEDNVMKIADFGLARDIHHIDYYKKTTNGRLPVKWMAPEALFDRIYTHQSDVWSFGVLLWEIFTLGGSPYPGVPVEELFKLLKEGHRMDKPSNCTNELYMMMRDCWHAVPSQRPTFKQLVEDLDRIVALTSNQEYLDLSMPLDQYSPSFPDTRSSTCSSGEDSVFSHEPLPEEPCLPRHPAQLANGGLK
# Text: as §1, §2, §3, §4
# [13] = target: T13, BTK (Homo sapiens, UniProt Q06187); test: BTK protein kinase assay
# T13 construct: All protein kinases were of human origin and encoded full length proteins, unless indicated otherwise; made in house
# T13 sequence (Q06187 whole entry): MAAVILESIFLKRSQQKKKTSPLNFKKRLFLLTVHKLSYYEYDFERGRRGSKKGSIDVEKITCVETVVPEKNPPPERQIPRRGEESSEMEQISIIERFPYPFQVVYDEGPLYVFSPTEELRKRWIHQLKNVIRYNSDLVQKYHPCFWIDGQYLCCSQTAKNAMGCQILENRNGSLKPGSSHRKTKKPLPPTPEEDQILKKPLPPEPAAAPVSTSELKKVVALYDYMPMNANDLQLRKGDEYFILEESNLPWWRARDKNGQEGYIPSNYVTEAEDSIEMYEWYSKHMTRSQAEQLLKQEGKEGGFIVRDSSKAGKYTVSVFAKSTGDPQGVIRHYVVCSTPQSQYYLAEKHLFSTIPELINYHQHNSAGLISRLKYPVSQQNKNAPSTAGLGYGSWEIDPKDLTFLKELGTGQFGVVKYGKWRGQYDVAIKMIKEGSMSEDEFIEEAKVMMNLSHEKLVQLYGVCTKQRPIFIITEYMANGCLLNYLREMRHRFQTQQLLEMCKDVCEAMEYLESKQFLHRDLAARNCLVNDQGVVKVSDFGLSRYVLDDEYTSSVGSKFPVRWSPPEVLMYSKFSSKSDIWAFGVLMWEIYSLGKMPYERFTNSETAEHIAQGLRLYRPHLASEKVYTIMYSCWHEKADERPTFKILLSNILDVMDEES
# Text: as §1, §2, §3, §4
# [14] = target: T14, P38b MAPK (Homo sapiens, UniProt Q15759); test: P38b MAPK protein kinase assay
# T14 construct: All protein kinases were of human origin and encoded full length proteins, unless indicated otherwise; made in house
# T14 sequence (Q15759 whole entry): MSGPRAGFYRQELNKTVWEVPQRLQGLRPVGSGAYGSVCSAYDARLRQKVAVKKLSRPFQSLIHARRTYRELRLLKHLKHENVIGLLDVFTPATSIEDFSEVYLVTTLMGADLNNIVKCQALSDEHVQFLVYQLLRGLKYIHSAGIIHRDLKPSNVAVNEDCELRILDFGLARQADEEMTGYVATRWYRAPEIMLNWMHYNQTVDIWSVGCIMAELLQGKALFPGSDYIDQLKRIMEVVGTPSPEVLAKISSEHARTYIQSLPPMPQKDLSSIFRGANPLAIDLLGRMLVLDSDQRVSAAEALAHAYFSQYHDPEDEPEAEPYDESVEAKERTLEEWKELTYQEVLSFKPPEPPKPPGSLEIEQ
# Text: as §1, §2, §3, §4
# T1 sequence (Q9H2X6 165-564 limits assumed): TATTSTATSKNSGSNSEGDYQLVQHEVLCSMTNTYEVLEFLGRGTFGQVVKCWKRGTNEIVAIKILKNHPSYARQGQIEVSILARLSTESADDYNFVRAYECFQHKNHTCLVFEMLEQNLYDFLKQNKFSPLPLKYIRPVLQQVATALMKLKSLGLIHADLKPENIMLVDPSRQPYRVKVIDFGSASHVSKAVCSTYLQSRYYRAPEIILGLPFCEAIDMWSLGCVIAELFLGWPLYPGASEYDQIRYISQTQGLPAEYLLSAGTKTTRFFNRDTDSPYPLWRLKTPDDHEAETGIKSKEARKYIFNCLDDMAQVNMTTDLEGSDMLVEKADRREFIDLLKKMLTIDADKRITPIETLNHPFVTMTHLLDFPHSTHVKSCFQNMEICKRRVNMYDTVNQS
compound,measurement,setting,value
"O=C(NCCCNc1nc(Nc2cccc(F)c2)ncc1Br)C1CCC1 [Compound A, cyclobutanecarboxylic acid {3-[5-bromo-2-(3-fluoro-phenylamino)-pyrimidin-4-ylamino]-propyl}-amide, reference compound]",remaining activity at 10 µM,"[1]; 10 μM compound, read-out: residual kinase activity HIPK2",12%
same,residual kinase activity HIPK2,[1]; 1 μm compound,58%
same,remaining activity at 10 µM,"[2]; 10 μM compound, read-out: residual kinase activity Lck",10%
same,residual kinase activity Lck,[2]; 1 μm compound,57%
same,remaining activity at 10 µM,"[3]; 10 μM compound, read-out: residual kinase activity PRK2",4%
same,residual kinase activity PRK2,[3]; 1 μm compound,24%
same,remaining activity at 10 µM,"[4]; 10 μM compound, read-out: residual kinase activity PIM3",21%
same,residual kinase activity PIM3,[4]; 1 μm compound,78%
same,remaining activity at 10 µM,"[5]; 10 μM compound, read-out: residual kinase activity SYK",4%
same,residual kinase activity SYK,[5]; 1 μm compound,25%
same,remaining activity at 10 µM,"[6]; 10 μM compound, read-out: residual kinase activity CSK",51%
same,residual kinase activity CSK,[6]; 1 μm compound,86%
same,remaining activity at 10 µM,"[7]; 10 μM compound, read-out: residual kinase activity VEG-FR",4%
same,residual kinase activity VEG-FR,[7]; 1 μm compound,4%
same,remaining activity at 10 µM,"[8]; 10 μM compound, read-out: residual kinase activity CAMKKb",22%
same,residual kinase activity CAMKKb,[8]; 1 μm compound,27%
same,remaining activity at 10 µM,"[9]; 10 μM compound, read-out: residual kinase activity PLK1",45%
same,residual kinase activity PLK1,[9]; 1 μm compound,82%
same,remaining activity at 10 µM,"[10]; 10 μM compound, read-out: residual kinase activity MKK1",2%
same,residual kinase activity MKK1,[10]; 1 μm compound,15%
same,remaining activity at 10 µM,"[11]; 10 μM compound, read-out: residual kinase activity MAPKAP-K2",48%
same,residual kinase activity MAPKAP-K2,[11]; 1 μm compound,82%
same,remaining activity at 10 µM,"[12]; 10 μM compound, read-out: residual kinase activity FGF-R1",1%
same,residual kinase activity FGF-R1,[12]; 1 μm compound,17%
same,remaining activity at 10 µM,"[13]; 10 μM compound, read-out: residual kinase activity BTK",33%
same,residual kinase activity BTK,[13]; 1 μm compound,94%
same,remaining activity at 10 µM,"[14]; 10 μM compound, read-out: residual kinase activity P38b MAPK",80%
same,residual kinase activity P38b MAPK,[14]; 1 μm compound,96%
